The values that follow come from patent publication US8871767B2, “2-arylimidazo[1,2-B]pyridazine, 2-phenylimidazo[1,2-A]pyridine, and 2-phenylimidazo[1,2-A]pyrazine derivatives” (Hengrui (USA) Ltd., priority 2010, dated 2014).

Experiment [1] relates to Hedgehog pathway activation on 10T1/2/Smo#3 cells (C3H10T1/2 cells transfected with human Smoothened receptor). The experiment can be described thus: Hedgehog pathway activation on 10T1/2/Smo#3 cells measured by ALP activity. The experiment is classed as cell-based. As to conditions: Mus musculus, C3H 10T1/2, 10T1/2/Smo#3 cells. Summed up: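 C3H10T1/2 cells stably expressing human Smoothened were activated with hShh-conditioned medium (10-20%) or 500 nM SAG, with test compounds present. Pathway block read as inhibited ALP activity (4-methylumbelliferyl phosphate fluorescence); viability checked by CellTiter-Blue. IC50 values reported.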

Experiment [2] deals with Hedgehog pathway activation (GLi-luciferase reporter) in Shh Light II reporter cells. In words: Hedgehog pathway activation on Shh Light II reporter cells measured by luciferase activity. It counts as cell-based. As to conditions: Mus musculus, Shh Light II. In a few lines:
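Shh Light II reporter cells carrying a hedgehog-responsive GLi-luciferase reporter were stimulated either with 500 nM SAG, a direct Smoothened agonist, or with conditioned media containing human Sonic Hedgehog (hShh). Test compounds were evaluated for blocking this pathway activation, quantified by luciferase activity. Cell viability was monitored in parallel with the Celltiter-Blue® assay.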

The mark [3] stands for this setting: measured by ALP activity, read-out: ALP (IC50, inhibition of Hedgehog pathway activation).
Where [4] appears, read: hShh activation, read-out: Shh (IC50, inhibition of Hedgehog pathway activation).
The mark [5] stands for this setting: hShh activation, ALP activity, read-out: 10T1/2/Smo#3 ALP activity (hShh Activation).
The mark [6] stands for this setting: SAG activation (500 nM SAG), read-out: Shh Light II luciferase activity (SAG activation).
[7] abbreviates: hShh activation, read-out: Shh Light II luciferase activity (hShh activation).

The structures appear in SMILES notation. Like-named read-outs stand apart in the source and are kept apart here.

As for `Cc1ccc(-c2cn3nc(Cl)ccc3n2)cc1NC(=O)C(C)(C)C(F)(F)F` [Example 122, N-(5-(6-chloroimidazo[1,2-b]pyridazin-2-yl)-2-methylphenyl)-3,3,3-trifluoro-2,2-dimethylpropanamide], the IC50 in experiment [1] (setting [3]) stood at 1940 nM; in experiment [2] (setting [4]) it was 3040 nM.

For the compound `Cc1ccc(-c2cn3nc(-c4cccnc4C(F)(F)F)ccc3n2)cc1NC(=O)CCCCCCC(=O)NO` [Example 429, N^1-hydroxy-N^8-(2-methyl-5-(6-(2-(trifluoromethyl)pyridin-3-yl)imidazo[1,2-b]pyridazin-2-yl)phenyl)octanediamide], the IC50 in experiment [1] (setting [5]) was 300 to 3000 nM; in experiment [1] (setting [3]) it was 1280 nM; in experiment [2] (setting [6]) it was 300 to 3000 nM; in experiment [2] (setting [4]), 167 nM; in experiment [2] (setting [7]) it was 3000 to 30000 nM.

Turning to `CCCC(C)(C)C(=O)Nc1cc(-c2cn3nc(-c4cccnc4C(F)(F)F)ccc3n2)ccc1Cl` [Example 667, N-(2-chloro-5-(6-(2-(trifluoromethyl)pyridin-3-yl)imidazo[1,2-b]pyridazin-2-yl)phenyl)-2,2-dimethylpentanamide], the IC50 in experiment [1] (setting [3]) was 203 nM; in experiment [2] (setting [4]), 64 nM.

Take `CC(C)(C)C(=O)Nc1cc(-c2cn3nc(-c4ccc(O)cc4)ccc3n2)ccc1C(F)(F)F` [Example 243, N-(5-(6-(4-hydroxyphenyl)imidazo[1,2-b]pyridazin-2-yl)-2-(trifluoromethyl)phenyl)pivalamide]: the IC50 in experiment [1] (setting [3]) amounted to 295 nM; in experiment [2] (setting [4]), 306 nM.

`CCOc1ccc2nc(-c3ccc(C(F)(F)F)c(S(=O)(=O)NC4CCCCC4)c3)cn2n1` [Example 214, N-cyclohexyl-5-(6-ethoxyimidazo[1,2-b]pyridazin-2-yl)-2-(trifluoromethyl)benzenesulfonamide]: the IC50 was 1580 nM in experiment [1] (setting [3]) and over 10000 nM in experiment [2] (setting [4]).

In the case of `Cc1ccc(-c2cn3nc(-c4cccc(C(=O)Nc5ccccc5N)c4)ccc3n2)cc1NC(=O)C(C)(C)C` [compound 598], the IC50 turned out to be 424 nM in experiment [1] (setting [3]) and 59 nM in experiment [2] (setting [4]).

In the case of `Cc1ccc(-c2cn3nc(-c4ccc(/C(N)=N/O)cc4C(F)(F)F)ccc3n2)cc1NC(=O)C(C)(C)C` [compound 511, N-(5-(6-(4-(N′-hydroxycarbamimidoyl)-2-(trifluoromethyl)phenyl)imidazo[1,2-b]pyridazin-2-yl)-2-methylphenyl)pivalamide], the IC50 in experiment [1] (setting [5]) is under 300 nM; in experiment [1] (setting [3]), 2 nM; in experiment [2] (setting [6]) it was under 300 nM; in experiment [2] (setting [4]) it was 10 nM; in experiment [2] (setting [7]), under 300 nM.

Take `CC(C)(C)CC(=O)Nc1cc(-c2cn3nc(-c4cccnc4C(F)(F)F)ccc3n2)ccc1Cl` [Example 672, N-(2-chloro-5-(6-(2-(trifluoromethyl)pyridin-3-yl)imidazo[1,2-b]pyridazin-2-yl)phenyl)-3,3-dimethylbutanamide]: the IC50 in experiment [1] (setting [3]) worked out at 565 nM; in experiment [2] (setting [4]), 86 nM.

Consider `CCOc1ccc2nc(-c3ccc(C(F)(F)F)c(S(=O)(=O)NC4CC4)c3)cn2n1` [Example 212, N-cyclopropyl-5-(6-ethoxyimidazo[1,2-b]pyridazin-2-yl)-2-(trifluoromethyl)benzenesulfonamide], for which the IC50 is 3000 to 30000 nM in experiment [1] (setting [5]); 5760 nM in experiment [1] (setting [3]); 3000 to 30000 nM in experiment [2] (setting [6]); over 10000 nM in experiment [2] (setting [4]); 3000 to 30000 nM in experiment [2] (setting [7]).

Take `CC(C)(C)C(=O)Nc1cc(-c2cn3nc(-c4cc(Cl)ccc4F)ccc3n2)ccc1C(F)(F)F` [Example 227, N-(5-(6-(5-chloro-2-fluorophenyl)imidazo[1,2-b]pyridazin-2-yl)-2-(trifluoromethyl)phenyl)pivalamide]: the IC50 in experiment [1] (setting [3]) came to 141 nM; in experiment [2] (setting [4]) it was 65 nM.

`Cc1ccc(-c2cn3nc(-c4cccc(F)c4C(F)(F)F)ccc3n2)cc1NC(=O)C(C)(C)C` [Example 395, N-(5-(6-(3-fluoro-2-(trifluoromethyl)phenyl)imidazo[1,2-b]pyridazin-2-yl)-2-methylphenyl)pivalamide]: the IC50 in experiment [1] (setting [3]) is 87 nM; in experiment [2] (setting [4]), 15 nM.
